According to patent US4301140A, “Radiopharmaceutical method for monitoring kidneys” (G. D. Searle & Co., priority 1979, dated 1981):

What was measured:
[1] = cited from earlier work
[2] = Scintiscan (Anger camera) monitoring of distribution of radioactivity after intravenous administration, rabbit; format: in vivo, New Zealand rabbit; design: key: -: no significant measured radioactivity; relative amounts of measured radioactivity ranging from (-) for no significant measured radioactivity to (+++) for the maximum measured radioactivity; relative amounts of measured radioactivity ranging from (-) for no significant measured radioactivity to (+++) for the maximum measured radioactivity; +++: the maximum measured radioactivity; conditions: i.v., 1.21 mg, 0.81 mCi
Method: Approximately 0.2 milliliter of a solution of the complex formed from technetium-99m and 0.95 milligram of fructose 1,6-diphosphate and prepared generally as described in Example 1 and having a radioactivity of 0.5 millicurie was administered intravenously to an anesthetized New Zealand rabbit weighing about 3 kilograms. Approximately the same volume of a solution of the complex formed from technetium-99m and 1.21 milligrams of fructose 6-phosphate prepared generally as described in Example 2, having a radioactivity of 0.81 millicurie was similarly administered to a second New Zealand rabbit of about the same weight. The injections were made using a 1 milliliter tuberculin syringe connected to a #23 gauge indwelling cannula inserted into a marginal ear vein. Each rabbit was positioned in a full ventral position for 2.5 to 3 hours during which time the disposition of the radioactivity in the rabbit in this position was monitored using a computer-augmented Anger camera. The measurements and results are discussed hereinafter, and the results of the test using the fructose 1,6-diphosphate and fructose 6-phosphate complexes are presented in Tables 1 and 2, respectively.
(§1) At various times after the aforesaid administrations of solutions of complexes of this invention, which times are indicated in Tables 1-6, scintiscan photographs and video tape recordings were taken of the aforesaid rabbit, beagles and monkeys using the Anger camera. This instrument was a Pho-Gamma LFOV Scintillation Camera System, Model 6413, fitted with a Model 3137 Vari-Back Camera, a Model 3122 Data-Store/Playback System and a Model 27851 Analog-Digital/Digital-AnalogConverter (all Searle Radiographics, Inc.). This entire system was interfaced with a Xerox 530 computer (Xerox Corp., Minneapolis, Minn.) which was programmed to record net counts per unit of time and percents of total counts in individual organs and to plot organ radioactivity versus time. The camera was operated with a 140 KeV high resolution Type II converging collimator using a 20 percent technetium-99m window. Generally 400,000 counts were accumulated on each scintiscan using both video tape and self-developing film, with the animal in the full ventral position. The photographs represented a visualization of the anatomic relationships in the kidneys.
(§2) Tables 1-6 contain semi-quantitative representations of the distribution of radioactivity in the organs of the test animals determined from the scintiscans. In Tables 1-6, (--), (+), (++) and (+++) indicate relative amounts of measured radioactivity ranging from (-) for no significant measured radioactivity to (+++) for the maximum measured radioactivity.

[3] = Scintiscan (Anger camera) monitoring of distribution of radioactivity after intravenous administration, female beagle dog; format: in vivo; design: key: -: no significant measured radioactivity; relative amounts of measured radioactivity ranging from (-) for no significant measured radioactivity to (+++) for the maximum measured radioactivity; relative amounts of measured radioactivity ranging from (-) for no significant measured radioactivity to (+++) for the maximum measured radioactivity; +++: the maximum measured radioactivity; conditions: i.v., 7.3 mg, 0.84 mCi
Method: (§3) This procedure used with the rabbits was repeated with additional anesthetized animals: two female beagle dogs and two female rhesus monkeys. In these cases, however, unlike the cases of the rabbits, the complex solutions, again prepared generally as described in Examples 1 and 2, were injected intravenously in a saphenous vein of the dogs and monkeys.
Three milliliters of a solution of the complex formed from technetium-99m and 9.4 milligrams of fructose 1,6-diphosphate and having a radioactivity of 0.5 mCi were administered to one such dog weighing 11.7 kilograms. In addition, 1.6 milliliters of a solution of the complex formed from technetium-99m and 7.3 milligrams of fructose 6-phosphate having a radioactivity of 0.84 mCi were administered to a second such dog weighing 10.5 kilograms.
as §1, §2

[4] = Scintiscan (Anger camera) monitoring of distribution of radioactivity after intravenous administration, rhesus monkey; format: in vivo; design: key: -: no significant measured radioactivity; relative amounts of measured radioactivity ranging from (-) for no significant measured radioactivity to (+++) for the maximum measured radioactivity; relative amounts of measured radioactivity ranging from (-) for no significant measured radioactivity to (+++) for the maximum measured radioactivity; +++: the maximum measured radioactivity; conditions: i.v., 7.6 mg, 0.79 mCi
Method: as §3
Similarly 0.3 milliliter of a solution of the complex formed from technetium-99m and 1.1 milligrams of fructose 1,6-diphosphate having a radioactivity of 1.2 mCi were administered to one such monkey weighing 5.1 kilograms. Also 1.5 milliliters of a solution of the complex formed from technetium-99m and 7.6 milligrams of fructose 6-phosphate having a radioactivity of 0.79 mCi were administered to a second such monkey weighing 6.7 kilograms.
as §1, §2

[5] = Appearance of radioactive complex in kidneys and urinary bladder calculated from video tape measurements (FIG. 1), male mongrel dog; format: in vivo; conditions: i.v., 3-5 mg, 3.5 mCi, about 45 min
Description: as §1
The appearance in the kidneys and urinary bladder of a male mongrel dog weighing 14.1 kilograms, of the radioactive complex formed from technetium-99m and 3-5 milligrams of fructose 6-phosphate administered intravenously as described above in a 0.5-1.0 milliliter solution prepared as in Example 2 and having a radioactivity of 3.5 mCi, was calculated from video tape measurements by the computer and is plotted in FIG. 1 as the percentage of total radioactivity administered in the form of the radioactive complex versus time after administration. At about 45 minutes after administration, about 60 percent of the total radioactivity administered was concentrated in the urinary bladder, with less than 7 percent of the total dose of the radioactive complex in the kidneys.

[6] = Plasma clearance after intravenous injection, dogs (gamma spectrometer); format: in vivo, dog (male mongrel and female beagle); conditions: i.v., four tests
Method: In each case about 0.5-2 milliliters of a solution of the complex having radioactivity of about 1-4 mCi and formed from 0.5-10 milligrams of complexing agent were administered. […] The dogs ranged in weight from 6 to 15 kilograms. Periodically blood samples were removed from the jugular vein of the dogs and collected in vacuum tubes containing the disodium salt of ethylenediamine tetracetic acid and the radioactivity of one milliliter samples of plasma were measured in a gamma spectrometer.
The gamma spectrometer employed was a Model 1185 Gamma Scintillation Spectrometer (Searle Analytic Inc., Des Plaines, Ill.). One milliliter samples of plasma or whole blood were analyzed for technetium-99m, and samples were counted for 1 minute. As determined by the computer, the curve in FIG. 2 and the five other corresponding curves (not shown) from the other tests with the dogs were the best fitting curves passing through the plots of experimentally measured radioactivities.

## O=C(O)CNC(=O)c1ccccc1[131I] [131I-o-iodohippurate]
[1]; after intravenous injection
  route of excretion: excreted through the kidneys exclusively
[1]; in vivo
  clearance model: appears to follow the two-compartment model

## complex of technetium-99m and fructose 6-phosphate
[2]; 1 min
  Relative distribution of complex: Kidneys: ++
  Relative distribution of complex: Urinary Bladder: +
  Relative distribution of complex: Vascular: ++
[2]; 30 min
  Relative distribution of complex: Kidneys: ++
  Relative distribution of complex: Urinary Bladder: ++
  Relative distribution of complex: Vascular: +
[2]; 60 min
  Relative distribution of complex: Kidneys: ++
  Relative distribution of complex: Urinary Bladder: +++
  Relative distribution of complex: Vascular: +
[2]; 120 min
  Relative distribution of complex: Kidneys: +
  Relative distribution of complex: Urinary Bladder: +++
  Relative distribution of complex: Vascular: -
[2]; 150 min
  Relative distribution of complex: Kidneys: +
  Relative distribution of complex: Urinary Bladder: +++
  Relative distribution of complex: Vascular: -
[3]; 1 min
  Relative distribution of complex: Kidneys: ++
  Relative distribution of complex: Urinary Bladder: -
  Relative distribution of complex: Vascular: ++
[3]; 6 min
  Relative distribution of complex: Kidneys: ++
  Relative distribution of complex: Urinary Bladder: +
  Relative distribution of complex: Vascular: +
[3]; 25 min
  Relative distribution of complex: Kidneys: +
  Relative distribution of complex: Urinary Bladder: ++
  Relative distribution of complex: Vascular: +
[3]; 30 min
  Relative distribution of complex: Kidneys: +
  Relative distribution of complex: Urinary Bladder: +++
  Relative distribution of complex: Vascular: +
[3]; 40 min
  Relative distribution of complex: Kidneys: +
  Relative distribution of complex: Urinary Bladder: +++
  Relative distribution of complex: Vascular: -
[3]; 50 min
  Relative distribution of complex: Kidneys: +
  Relative distribution of complex: Urinary Bladder: +++
  Relative distribution of complex: Vascular: -
[3]; 60 min
  Relative distribution of complex: Kidneys: +
  Relative distribution of complex: Urinary Bladder: +++
  Relative distribution of complex: Vascular: -
[3]; 70 min
  Relative distribution of complex: Kidneys: +
  Relative distribution of complex: Urinary Bladder: +++
  Relative distribution of complex: Vascular: -
[3]; 80 min
  Relative distribution of complex: Kidneys: +
  Relative distribution of complex: Urinary Bladder: +++
  Relative distribution of complex: Vascular: -
[3]; 90 min
  Relative distribution of complex: Kidneys: +
  Relative distribution of complex: Urinary Bladder: +++
  Relative distribution of complex: Vascular: -
[4]; 4 min
  Relative distribution of complex: Kidneys: ++
  Relative distribution of complex: Urinary Bladder: +++
  Relative distribution of complex: Vascular: +
[4]; 30 min
  Relative distribution of complex: Kidneys: ++
  Relative distribution of complex: Urinary Bladder: +++
  Relative distribution of complex: Vascular: +
[4]; 50 min
  Relative distribution of complex: Kidneys: +
  Relative distribution of complex: Urinary Bladder: +++
  Relative distribution of complex: Vascular: -
[4]; 65 min
  Relative distribution of complex: Kidneys: +
  Relative distribution of complex: Urinary Bladder: +++
  Relative distribution of complex: Vascular: -
[5]
  percentage of total dose of the radioactive complex in the kidneys: less than 7%
  percentage of total radioactivity administered concentrated in the urinary bladder: about 60%
  radioactivity concentrated in any other organ: No measurable radioactivity
[6]; single obviously erroneous measurement eliminated, standard deviation 0.025 hour
  improved average half time, distributive phase: 0.072 h
[6]; single obviously erroneous measurement eliminated, standard deviation 0.72 hour
  improved average half time, elimination phase: 1.68 h
[6]; standard deviation 0.023 hour
  average half time, distributive phase: 0.088 h
[6]; standard deviation 3.29 hours
  average half time, elimination phase: 3.98 h
